{"source": "patent US8362031B2", "about": "“Lonidamine analogues and treatment of polycystic kidney disease” (University of Kansas, priority 2004, dated 2013)", "tested_on": "rats", "assay": "Toxicology: organs sectioned and examined after dosing", "type": "in vivo", "note": "Entries after “also recorded” stand apart in the source; their conditions may differ.", "data": [{"smiles": "O=C(O)/C=C/c1nn(Cc2ccc(Cl)cc2Cl)c2cc(C(F)(F)F)ccc12", "note": "[RC-MC-110, trans 3-[1-(2,4-dichlorobenzyl)-6-trifluoromethyl-1H-indazol-3-yl]-acrylic acid]", "values": [{"measurement": "Toxicology: liver, lung, pancreas, spleen, heart and kidney (histology)", "setting": "6 mg/kg, follow-up experiment, findings per animal", "value": "The liver did have isolated, scattered, small necrotic patches, resembling what is often found in subacute hepatic necrosis"}, {"measurement": "Toxicology: liver, lung, pancreas, spleen, heart and kidney (histology)", "setting": "12 mg/kg, follow-up experiment, findings per animal", "value": "The liver did have isolated, scattered, small necrotic patches, resembling what is often found in subacute hepatic necrosis; also recorded: The liver contained small, patchy areas of necrosis resembling what is often described for subacute hepatic necrosis; also recorded: The lungs also had multiple, small hemorrhagic areas around the respiratory and terminal bronchioles"}, {"measurement": "Toxicology: liver, lung, pancreas, spleen, heart and kidney (histology)", "setting": "25 mg/kg, two animals examined, findings per animal", "value": "liver, lung, pancreas, spleen, heart and kidney all appear within normal limits"}, {"measurement": "Toxicology: liver, lung, pancreas, spleen, heart and kidney (histology)", "setting": "200 mg/kg, two animals examined, findings per animal", "value": "liver, lung, pancreas, spleen, heart and kidney all appear within normal limits"}, {"measurement": "Toxicology: liver, lung, pancreas, spleen, heart and kidney (histology)", "setting": "oral 1.5 mg/kg, two animals, corn oil", "value": "the liver showed a small number of randomly scattered, small necrotic patches, but was otherwise normal"}, {"measurement": "Toxicology: liver, lung, pancreas, spleen, heart and kidney (histology)", "setting": "oral 1.5 mg/kg, two animals, corn oil, 1.5 mg/kg", "value": "The other animal receiving 1.5 mg/kg appeared normal"}, {"measurement": "Toxicology: liver, lung, pancreas, spleen, heart and kidney (histology)", "setting": "oral 6 mg/kg, 3 mg/kg, 1 mg/kg and 0.5 mg/kg, two animals from each dose level, corn oil", "value": "liver, lung, pancreas, spleen, heart and kidney all appeared within normal limits"}]}]}
